Test results from the NIST ThermoML archive (doi:10.1021/je060271a).
Values joined by “and” are separate entries in the source; they are usually repeats but may differ in a detail not shown here. Equal values may be shown once.

Conditions: Liquid, Vibrating tube method

CCCC(=O)OCC(COC(=O)CCC)(COC(=O)CCC)COC(=O)CCC [pentaerythritol tetrabutyrate]
Conditions	mass density
323.15 K, 30112 kPa	1045 kg/m3
323.15 K, 30149 kPa	1045.1 kg/m3
323.15 K, 30193 kPa	1045.1 kg/m3
323.15 K, 30232 kPa	1045.2 kg/m3
323.15 K, 30562 kPa	1045.3 kg/m3
323.15 K, 30601 kPa	1045.3 kg/m3
323.15 K, 30640 kPa	1045.5 kg/m3
323.15 K, 30680 kPa	1045.4 kg/m3
323.15 K, 30730 kPa	1045.5 kg/m3
323.15 K, 30771 kPa	1045.5 kg/m3
323.15 K, 30818 kPa	1045.4 kg/m3
323.15 K, 30850 kPa	1045.6 kg/m3
323.15 K, 30881 kPa	1045.6 kg/m3
323.15 K, 30918 kPa	1045.7 kg/m3
323.15 K, 30948 kPa	1045.6 kg/m3
323.15 K, 30979 kPa	1045.6 kg/m3
323.15 K, 31009 kPa	1045.7 kg/m3
323.15 K, 31047 kPa	1045.6 kg/m3
323.15 K, 31079 kPa	1045.6 kg/m3
323.15 K, 31110 kPa	1045.6 kg/m3
323.15 K, 31146 kPa	1045.7 kg/m3
323.15 K, 31178 kPa	1045.9 kg/m3
323.15 K, 31209 kPa	1045.6 kg/m3
323.15 K, 31247 kPa	1045.7 kg/m3
323.15 K, 31278 kPa	1045.7 kg/m3
323.15 K, 31310 kPa	1045.8 kg/m3
323.15 K, 31347 kPa	1045.9 kg/m3
323.15 K, 31379 kPa	1045.9 kg/m3
323.15 K, 31411 kPa	1045.8 kg/m3
323.15 K, 31450 kPa	1045.8 kg/m3
323.15 K, 31481 kPa	1045.9 kg/m3
323.15 K, 31513 kPa	1045.9 kg/m3
323.15 K, 31546 kPa	1046 kg/m3
323.15 K, 31584 kPa	1045.9 kg/m3
323.15 K, 31616 kPa	1046 kg/m3
323.15 K, 31649 kPa	1046 kg/m3
323.15 K, 31690 kPa	1046 kg/m3
323.15 K, 31725 kPa	1046 kg/m3
323.15 K, 31758 kPa	1046 kg/m3
323.15 K, 31791 kPa	1046 kg/m3
323.15 K, 31830 kPa	1046.2 kg/m3
323.15 K, 31863 kPa	1046.2 kg/m3
323.15 K, 31896 kPa	1046.1 kg/m3
323.15 K, 31936 kPa	1046.2 kg/m3
323.15 K, 31970 kPa	1046.2 kg/m3
323.15 K, 32003 kPa	1046.3 kg/m3
323.15 K, 32043 kPa	1046.2 kg/m3
323.15 K, 32151 kPa	1046.3 kg/m3
323.15 K, 32179 kPa	1046.3 kg/m3
323.15 K, 32219 kPa	1046.4 kg/m3
323.15 K, 32253 kPa	1046.3 kg/m3
323.15 K, 32288 kPa	1046.4 kg/m3
323.15 K, 32328 kPa	1046.5 kg/m3
323.15 K, 32362 kPa	1046.4 kg/m3
323.15 K, 32403 kPa	1046.5 kg/m3
323.15 K, 32437 kPa	1046.5 kg/m3
323.15 K, 32472 kPa	1046.5 kg/m3
323.15 K, 32506 kPa	1046.5 kg/m3
323.15 K, 32548 kPa	1046.5 kg/m3
323.15 K, 32583 kPa	1046.6 kg/m3
323.15 K, 32618 kPa	1046.6 kg/m3
323.15 K, 32660 kPa	1046.7 kg/m3
323.15 K, 32694 kPa	1046.6 kg/m3
323.15 K, 32737 kPa	1046.6 kg/m3
323.15 K, 32772 kPa	1046.7 kg/m3
323.15 K, 32808 kPa	1046.9 kg/m3
323.15 K, 32843 kPa	1046.6 kg/m3
323.15 K, 32886 kPa	1046.8 kg/m3
323.15 K, 32921 kPa	1046.8 kg/m3
323.15 K, 33152 kPa	1046.9 kg/m3
323.15 K, 33188 kPa	1047 kg/m3
323.15 K, 33232 kPa	1046.9 kg/m3
323.15 K, 33268 kPa	1047 kg/m3
323.15 K, 33305 kPa	1046.9 kg/m3
323.15 K, 33386 kPa	1047 kg/m3
323.15 K, 33430 kPa	1047.1 kg/m3
323.15 K, 33468 kPa	1047.2 kg/m3
323.15 K, 33504 kPa	1047.1 kg/m3
323.15 K, 33549 kPa	1047.2 kg/m3
323.15 K, 33587 kPa	1047.2 kg/m3
323.15 K, 33625 kPa	1047.2 kg/m3
323.15 K, 33664 kPa	1047.2 kg/m3
323.15 K, 33690 kPa	1047.2 kg/m3
323.15 K, 33710 kPa	1047.3 kg/m3
323.15 K, 33750 kPa	1047.2 kg/m3
323.15 K, 33797 kPa	1047.3 kg/m3
323.15 K, 33837 kPa	1047.4 kg/m3
323.15 K, 34013 kPa	1047.4 kg/m3
323.15 K, 34067 kPa	1047.4 kg/m3
323.15 K, 34113 kPa	1047.7 kg/m3
323.15 K, 34161 kPa	1047.5 kg/m3
323.15 K, 34221 kPa	1047.5 kg/m3
323.15 K, 34272 kPa	1047.7 kg/m3
323.15 K, 34276 kPa	1047.6 kg/m3
323.15 K, 34313 kPa	1047.6 kg/m3
323.15 K, 34342 kPa	1047.6 kg/m3
323.15 K, 34379 kPa	1047.7 kg/m3
323.15 K, 34410 kPa	1047.7 kg/m3
323.15 K, 34436 kPa	1047.7 kg/m3
323.15 K, 34450 kPa	1047.8 kg/m3
323.15 K, 34468 kPa	1047.9 kg/m3
323.15 K, 34568 kPa	1047.8 kg/m3
323.15 K, 34570 kPa	1047.8 kg/m3 and 1047.9 kg/m3
323.15 K, 34571 kPa	1047.7 kg/m3
323.15 K, 34572 kPa	1047.7 kg/m3 and 1047.9 kg/m3 and 1047.8 kg/m3
343.13 K, 2755.8 kPa	1010.1 kg/m3
343.13 K, 2840 kPa	1010.2 kg/m3
343.13 K, 4339.6 kPa	1011.5 kg/m3
343.14 K, 104.4 kPa	1008.1 kg/m3
343.14 K, 105.3 kPa	1008.1 kg/m3
343.14 K, 105.8 kPa	1008.1 kg/m3
343.14 K, 106.3 kPa	1008.1 kg/m3
343.14 K, 107.5 kPa	1008.2 kg/m3
343.14 K, 108.6 kPa	1008.2 kg/m3
343.14 K, 110.3 kPa	1008.1 kg/m3
343.14 K, 112.9 kPa	1008.2 kg/m3
343.14 K, 116.2 kPa	1008.1 kg/m3
343.14 K, 121.8 kPa	1008.1 kg/m3
343.14 K, 129.6 kPa	1008.1 kg/m3
343.14 K, 141.1 kPa	1008.3 kg/m3
343.14 K, 155.9 kPa	1008.2 kg/m3
343.14 K, 167 kPa	1008.1 kg/m3
343.14 K, 181.6 kPa	1008.1 kg/m3
343.14 K, 200 kPa	1008.2 kg/m3
343.14 K, 216 kPa	1008.1 kg/m3
343.14 K, 226.6 kPa	1008.2 kg/m3
343.14 K, 238.6 kPa	1008.3 kg/m3
343.14 K, 252.1 kPa	1008.2 kg/m3
343.14 K, 267.4 kPa	1008.2 kg/m3
343.14 K, 284.6 kPa	1008.3 kg/m3
343.14 K, 304.8 kPa	1008.3 kg/m3
343.14 K, 328.1 kPa	1008.2 kg/m3
343.14 K, 354.2 kPa	1008.2 kg/m3
343.14 K, 383.4 kPa	1008.3 kg/m3
343.14 K, 404.4 kPa	1008.4 kg/m3
343.14 K, 419.5 kPa	1008.4 kg/m3
343.14 K, 436.2 kPa	1008.5 kg/m3
343.14 K, 541.8 kPa	1008.4 kg/m3
343.14 K, 568.7 kPa	1008.5 kg/m3
343.14 K, 598.4 kPa	1008.6 kg/m3
343.14 K, 626.6 kPa	1008.5 kg/m3
343.14 K, 662.6 kPa	1008.4 kg/m3
343.14 K, 698.7 kPa	1008.5 kg/m3
343.14 K, 717.3 kPa	1008.6 kg/m3
343.14 K, 736.7 kPa	1008.6 kg/m3
343.14 K, 752.7 kPa	1008.6 kg/m3
